Structures are written as SMILES.

The assay concerns H1975 xenograft. Put plainly: In vivo efficacy in NCI-H1975 xenograft mouse model. Set-up: species or system Balb/c nude mice. Conditions: KU113 10 and 20 mg/kg po qd; afatinib 20 mg/kg; erlotinib 100 mg/kg. The protocol:
H1975 cells were purchased from ATCC were cultured in RPMI1640±10% FBS-1% P/S antibiotics. Balb/c nude mice, female, 6-8 week, 18+2 g were purchased from. Shanghai Laboratory Animal Co. Ltd. The purchased mice were adapted to the environment for 7 days before use, and were housed at 22-25° C. with humidity 40-70%, and light cycle with fluorescent light for 12-hour light (8:00-20:00) 12-hour dark.
Formulation: Erlotinib, afatinib (BIBW2992), and KU113 were dissolved in 2% DMA and 98% (40% HP-β-CD deionized water).
The cancer cells (H1975) were amplified and implanted into the nude mice (right flank) with 5.0×10^6 cells in PBS and 1:1 with matrigel in a total volume of 0.1 ml/mouse. […]
The mice were monitored twice daily for appearance and behavior, and for signs of morbidity and/or mortality. The tumor volume was measured twice a week, and the body weight was measured immediately before measuring the tumor volume throughout the whole study. […]
Tumor sizes were measured twice weekly in two dimensions using a caliper, and the volume was expressed in mm^3 using the formula: V=½×a×b^2 where a and b are the long and short diameters of the tumor, respectively. […]

Turning to `CN(C)C/C=C/C(=O)Nc1cc2c(Nc3ccc(F)c(Cl)c3)ncnc2cc1C#C[C@@H]1[C@H]2COC[C@@H]12` [Example 4, (E)-N-(4-(3-chloro-4-fluorophenylamino)-7-(2-((1R,5S,6s)-3-oxa-bicyclo[3.1.0]hexan-6-yl)ethynyl)quinazolin-6-yl)-4-(dimethylamino)but-2-enamide], the “anticancer effect on H1975 xenograft versus comparators” value was “significantly more effective than erlotinib; and comparable with afatinib”.

These data come from patent US11524956B2, “Alkyne substituted quinazoline compound and methods of use” (Newgen Therapeutics, Inc., priority 2011, dated 2022).
